Experiment [1] concerns the target T1, EGFR^L858R/T790M (Homo sapiens, UniProt P00533, L858R/T790M). Kind of experiment: biochemical.
Experiment [2] concerns the target T2, EGFR^WT (Homo sapiens, UniProt P00533). Kind of experiment: biochemical.
For experiment [3], the target named is T3, EGFR^L858R (Homo sapiens, UniProt P00533, L858R). The experiment is described as follows: biochemical.
Experiment [4] concerns the target T1, EGFR^L858R/T790M. The experiment is described as follows: Kinetic characterization. Format: biochemical.
For experiment [5], the target named is T3, EGFR^L858R. Kind of experiment: Kinetic characterization. Format: biochemical.
In experiment [6] the target is T2, EGFR^WT. The experiment is described as follows: Kinetic characterization. It counts as biochemical.
Experiment [7] relates to kinases that harbor a cysteine comparable to C797 in the hinge region. The experiment is described as follows: SelectScreen kinase profiling. It counts as biochemical. To be noted: compound concentration 1 μM; almost all cysteine-containing kinases (Table S1).
Experiment [8] deals with T1, EGFR^L858R/T790M. Kind of experiment: SelectScreen kinase profiling.
A further experiment has as its target EGFR^T790M (Homo sapiens, UniProt P00533, T790M). The experiment is described as follows: SelectScreen kinase profiling. It counts as biochemical.

The source of these data is paper PMC6018958 (ACS Omega, 2017).

T2 sequence (P00533 25-1210): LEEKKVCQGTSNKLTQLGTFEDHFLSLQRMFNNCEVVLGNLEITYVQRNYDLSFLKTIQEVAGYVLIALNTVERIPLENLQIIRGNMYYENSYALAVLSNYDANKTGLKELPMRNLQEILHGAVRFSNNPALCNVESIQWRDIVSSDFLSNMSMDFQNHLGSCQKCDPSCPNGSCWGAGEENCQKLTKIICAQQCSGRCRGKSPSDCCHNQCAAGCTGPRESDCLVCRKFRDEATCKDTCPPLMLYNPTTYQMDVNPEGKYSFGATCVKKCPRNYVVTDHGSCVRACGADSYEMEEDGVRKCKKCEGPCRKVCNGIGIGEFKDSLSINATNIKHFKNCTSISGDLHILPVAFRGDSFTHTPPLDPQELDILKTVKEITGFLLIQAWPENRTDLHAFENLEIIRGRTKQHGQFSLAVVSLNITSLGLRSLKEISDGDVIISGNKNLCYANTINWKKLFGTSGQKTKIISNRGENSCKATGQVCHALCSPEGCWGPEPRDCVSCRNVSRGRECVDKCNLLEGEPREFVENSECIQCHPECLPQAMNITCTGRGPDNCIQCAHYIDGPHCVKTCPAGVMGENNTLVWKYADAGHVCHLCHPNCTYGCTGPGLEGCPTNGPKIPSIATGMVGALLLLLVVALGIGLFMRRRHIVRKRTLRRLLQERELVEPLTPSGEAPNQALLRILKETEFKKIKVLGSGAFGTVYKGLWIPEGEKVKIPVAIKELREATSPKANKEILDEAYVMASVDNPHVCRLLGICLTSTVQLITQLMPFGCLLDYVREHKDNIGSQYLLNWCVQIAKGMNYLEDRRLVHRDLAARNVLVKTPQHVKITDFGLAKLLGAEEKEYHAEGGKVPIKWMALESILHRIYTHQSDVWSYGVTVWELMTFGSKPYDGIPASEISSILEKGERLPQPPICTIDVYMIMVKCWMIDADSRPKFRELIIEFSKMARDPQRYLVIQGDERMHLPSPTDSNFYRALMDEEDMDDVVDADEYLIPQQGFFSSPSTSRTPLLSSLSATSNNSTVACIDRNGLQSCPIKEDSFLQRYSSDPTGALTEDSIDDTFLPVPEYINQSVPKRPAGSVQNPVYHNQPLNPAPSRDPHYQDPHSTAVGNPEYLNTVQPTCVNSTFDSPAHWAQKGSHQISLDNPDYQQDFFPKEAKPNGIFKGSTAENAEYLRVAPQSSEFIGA
T1 sequence (P00533 25-1210 T790M/L858R): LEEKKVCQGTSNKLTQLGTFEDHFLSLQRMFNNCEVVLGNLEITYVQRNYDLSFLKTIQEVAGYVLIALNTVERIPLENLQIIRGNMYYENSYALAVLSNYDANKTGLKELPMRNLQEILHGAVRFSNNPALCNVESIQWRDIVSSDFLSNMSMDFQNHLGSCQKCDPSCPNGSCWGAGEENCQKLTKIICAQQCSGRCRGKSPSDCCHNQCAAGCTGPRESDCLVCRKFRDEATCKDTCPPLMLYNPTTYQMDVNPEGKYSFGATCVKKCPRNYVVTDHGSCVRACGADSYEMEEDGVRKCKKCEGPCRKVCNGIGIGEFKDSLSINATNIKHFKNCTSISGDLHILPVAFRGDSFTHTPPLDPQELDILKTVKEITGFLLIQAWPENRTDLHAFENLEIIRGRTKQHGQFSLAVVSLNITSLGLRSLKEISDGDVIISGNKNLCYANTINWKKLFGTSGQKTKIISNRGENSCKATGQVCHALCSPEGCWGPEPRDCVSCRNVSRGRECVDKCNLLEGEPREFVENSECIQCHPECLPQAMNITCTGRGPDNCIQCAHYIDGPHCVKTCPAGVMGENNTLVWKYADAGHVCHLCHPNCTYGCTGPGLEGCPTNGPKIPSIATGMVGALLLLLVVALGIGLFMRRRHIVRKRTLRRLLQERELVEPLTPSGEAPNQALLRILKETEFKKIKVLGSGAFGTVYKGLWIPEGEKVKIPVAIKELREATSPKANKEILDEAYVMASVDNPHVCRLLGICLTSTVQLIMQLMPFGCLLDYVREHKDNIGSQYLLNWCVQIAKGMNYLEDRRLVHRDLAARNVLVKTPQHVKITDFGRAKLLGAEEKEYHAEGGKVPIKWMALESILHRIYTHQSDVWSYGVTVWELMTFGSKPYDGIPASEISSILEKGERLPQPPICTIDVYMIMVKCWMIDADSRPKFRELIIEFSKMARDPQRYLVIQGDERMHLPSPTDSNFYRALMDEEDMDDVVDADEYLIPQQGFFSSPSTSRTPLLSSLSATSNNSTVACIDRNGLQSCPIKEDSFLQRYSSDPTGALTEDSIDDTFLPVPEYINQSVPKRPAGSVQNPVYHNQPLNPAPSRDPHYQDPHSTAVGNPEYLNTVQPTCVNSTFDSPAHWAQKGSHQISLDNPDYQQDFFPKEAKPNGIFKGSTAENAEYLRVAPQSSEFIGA
T3 sequence (P00533 25-1210 L858R): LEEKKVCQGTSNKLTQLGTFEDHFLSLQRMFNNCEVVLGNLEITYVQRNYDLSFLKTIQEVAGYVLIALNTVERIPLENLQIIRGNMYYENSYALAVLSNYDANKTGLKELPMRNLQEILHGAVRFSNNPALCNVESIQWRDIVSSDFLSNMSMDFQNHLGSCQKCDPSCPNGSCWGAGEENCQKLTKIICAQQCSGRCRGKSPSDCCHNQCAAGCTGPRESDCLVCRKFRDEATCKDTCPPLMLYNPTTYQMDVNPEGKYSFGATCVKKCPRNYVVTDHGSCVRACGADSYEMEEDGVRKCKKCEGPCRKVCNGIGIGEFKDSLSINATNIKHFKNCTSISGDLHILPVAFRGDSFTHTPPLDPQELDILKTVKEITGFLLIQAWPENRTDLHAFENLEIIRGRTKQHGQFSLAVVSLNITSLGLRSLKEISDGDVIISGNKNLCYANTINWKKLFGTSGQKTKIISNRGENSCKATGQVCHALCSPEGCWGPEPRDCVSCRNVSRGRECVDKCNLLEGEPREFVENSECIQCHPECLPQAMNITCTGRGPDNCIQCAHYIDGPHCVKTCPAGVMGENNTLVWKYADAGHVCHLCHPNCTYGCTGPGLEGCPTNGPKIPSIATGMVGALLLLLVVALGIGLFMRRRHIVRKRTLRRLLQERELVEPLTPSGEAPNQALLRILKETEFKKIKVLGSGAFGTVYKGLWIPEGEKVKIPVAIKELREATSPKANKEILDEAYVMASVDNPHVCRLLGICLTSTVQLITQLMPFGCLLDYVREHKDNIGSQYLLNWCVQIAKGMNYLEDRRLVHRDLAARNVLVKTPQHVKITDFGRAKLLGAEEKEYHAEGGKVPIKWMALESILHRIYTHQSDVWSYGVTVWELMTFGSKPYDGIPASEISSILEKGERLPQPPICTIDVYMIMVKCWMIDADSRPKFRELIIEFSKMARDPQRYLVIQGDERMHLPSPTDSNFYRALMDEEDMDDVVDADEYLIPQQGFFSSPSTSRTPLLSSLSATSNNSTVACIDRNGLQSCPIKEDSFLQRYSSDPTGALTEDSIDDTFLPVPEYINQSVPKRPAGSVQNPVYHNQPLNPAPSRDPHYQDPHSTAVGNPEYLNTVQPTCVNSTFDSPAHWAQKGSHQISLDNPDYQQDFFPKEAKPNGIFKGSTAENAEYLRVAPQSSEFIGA
Sequence of EGFR^T790M (P00533 25-1210 T790M): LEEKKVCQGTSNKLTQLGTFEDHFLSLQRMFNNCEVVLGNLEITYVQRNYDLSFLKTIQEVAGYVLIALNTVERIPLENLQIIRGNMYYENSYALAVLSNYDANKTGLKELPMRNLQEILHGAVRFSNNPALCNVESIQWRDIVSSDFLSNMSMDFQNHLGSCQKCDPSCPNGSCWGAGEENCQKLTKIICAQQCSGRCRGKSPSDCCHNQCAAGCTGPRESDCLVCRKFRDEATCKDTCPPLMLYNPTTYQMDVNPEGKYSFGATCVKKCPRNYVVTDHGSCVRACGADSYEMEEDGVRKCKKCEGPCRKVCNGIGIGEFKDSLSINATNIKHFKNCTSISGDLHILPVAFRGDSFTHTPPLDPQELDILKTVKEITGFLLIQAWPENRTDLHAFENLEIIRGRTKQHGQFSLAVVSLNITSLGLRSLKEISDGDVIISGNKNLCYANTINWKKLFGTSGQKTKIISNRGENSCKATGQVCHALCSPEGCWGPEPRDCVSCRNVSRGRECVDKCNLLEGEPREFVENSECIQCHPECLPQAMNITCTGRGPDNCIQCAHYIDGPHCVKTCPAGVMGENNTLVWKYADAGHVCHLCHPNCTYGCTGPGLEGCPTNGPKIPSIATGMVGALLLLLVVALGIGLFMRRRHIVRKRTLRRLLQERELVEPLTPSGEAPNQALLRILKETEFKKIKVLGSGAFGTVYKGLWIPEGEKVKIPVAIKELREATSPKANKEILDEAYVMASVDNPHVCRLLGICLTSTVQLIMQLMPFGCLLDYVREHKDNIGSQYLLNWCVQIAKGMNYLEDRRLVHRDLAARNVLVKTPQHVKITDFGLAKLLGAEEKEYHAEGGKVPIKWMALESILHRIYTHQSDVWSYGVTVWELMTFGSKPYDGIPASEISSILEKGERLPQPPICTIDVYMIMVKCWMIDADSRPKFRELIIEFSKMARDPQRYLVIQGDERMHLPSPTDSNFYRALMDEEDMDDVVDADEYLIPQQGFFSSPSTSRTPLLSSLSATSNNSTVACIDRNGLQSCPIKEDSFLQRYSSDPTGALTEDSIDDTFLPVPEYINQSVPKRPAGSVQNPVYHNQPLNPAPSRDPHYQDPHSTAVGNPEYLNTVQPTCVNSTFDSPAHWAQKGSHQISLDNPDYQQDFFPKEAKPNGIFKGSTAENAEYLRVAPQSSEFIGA

With `N#C/C(=C\C1CC1)C(=O)N1CCC[C@@H](n2nc(-c3ccccc3)c3c(N)ncnc32)C1` [1a, (R,E)-2-(3-(4-Amino-3-phenyl-1H-pyrazolo[3,4-d]pyrimidin-1-yl)piperidine-1-carbonyl)-3-cyclopropylacrylonitrile], the values for the IC50 against EGFR^L858R/T790M [1], against EGFR^WT [2] and at EGFR^L858R [3] were 4540 ± 543 nM, 5380 ± 3890 nM and 229 ± 62 nM, respectively.
The corresponding values for `N#C/C(=C\C1CC1)C(=O)N1CCC[C@@H](n2nc(-c3cccc(C(F)(F)F)c3)c3c(N)ncnc32)C1` [1b, (R,E)-2-(3-(4-Amino-3-(3-(trifluoromethyl)phenyl)-1H-pyrazolo[3,4-d]pyrimidin-1-yl)piperidine-1-carbonyl)-3-cyclopropylacrylonitrile] are 2540 ± 420 nM, more than 10000 nM and 385 ± 207 nM.
With `N#C/C(=C\C1CC1)C(=O)N1CCC[C@@H](n2nc(-c3cccc4ccccc34)c3c(N)ncnc32)C1` [1c, (R,E)-2-(3-(4-Amino-3-(naphthalen-1-yl)-1H-pyrazolo[3,4-d]pyrimidin-1-yl)piperidine-1-carbonyl)-3-cyclopropylacrylonitrile], the values for the Ki at EGFR^L858R/T790M [4], on EGFR^L858R [5] and on EGFR^WT [6] were 15 ± 3 nM, 14 ± 2 nM and 64 ± 1 nM, respectively. In addition, the kinact (commonly the maximal first-order rate at which the target is inactivated) is 0.00183 s⁻¹ at EGFR^L858R/T790M [4], 0.000667 s⁻¹ at EGFR^L858R [5] and 0.0005 s⁻¹ on EGFR^WT [6]. Besides, the kinact/KI – broadly, the second-order rate constant of inactivation – is 730000 ± 160000 M⁻¹ s⁻¹ on EGFR^L858R/T790M [4], 680000 ± 250000 M⁻¹ s⁻¹ at EGFR^L858R [5] and 10000 ± 10000 M⁻¹ s⁻¹ at EGFR^WT [6]. For the same compound, the figures for the IC50 against EGFR^L858R/T790M [1] and on EGFR^WT [2] were 80 ± 51 nM and 102 ± 75 nM, respectively.
Consider `N#C/C(=C\C1CC1)C(=O)N1CCC[C@@H](n2nc(-c3cnc4[nH]ccc4c3)c3c(N)ncnc32)C1` [1d, (R,E)-2-(3-(4-Amino-3-(1H-pyrrolo[2,3-b]pyridin-5-yl)-1H-pyrazolo[3,4-d]pyrimidin-1-yl)piperidine-1-carbonyl)-3-cyclopropylacrylonitrile], for which the Ki (in general, the dissociation constant of the complex between target and ligand, obtained from inhibition or displacement) at EGFR^L858R/T790M [4] was determined as 51 ± 2 nM; at EGFR^L858R [5], 37 ± 6 nM; at EGFR^WT [6] it was 265 ± 1 nM. Moreover, the results for the kinact on EGFR^L858R/T790M [4], on EGFR^L858R [5] and at EGFR^WT [6] were 0.00283 s⁻¹, 0.003 s⁻¹ and 0.000667 s⁻¹, respectively. In addition, the kinact/KI came to 50000 ± 20000 M⁻¹ s⁻¹ at EGFR^L858R/T790M [4], 200000 ± 10000 M⁻¹ s⁻¹ at EGFR^L858R [5] and 10000 ± 10000 M⁻¹ s⁻¹ at EGFR^WT [6]. Further, the IC50 (commonly the concentration needed to halve the response being measured) at EGFR^L858R/T790M [1] was determined as 20 ± 13 nM; against EGFR^WT [2], 96 ± 26 nM; on EGFR^L858R [3], 10 ± 8 nM. In addition, the inhibition (as a rule, the share of the control response that was lost under treatment) in experiment [7] is given as “more than 50%”. Further, the inhibition at 1 µM at EGFR^L858R/T790M [8] and at EGFR^T790M was approximately 90% throughout.
For `Cn1cc(-c2nn([C@@H]3CCCN(C(=O)/C(C#N)=C/C4CC4)C3)c3ncnc(N)c23)c2ccccc21` [1e, (R,E)-2-(3-(4-Amino-3-(1-methyl-1H-indol-3-yl)-1H-pyrazolo[3,4-d]pyrimidin-1-yl)piperidine-1-carbonyl)-3-cyclopropylacrylonitrile], the Ki at EGFR^L858R/T790M [4] worked out at 83 ± 10 nM; on EGFR^L858R [5] it was 79 ± 9 nM; on EGFR^WT [6], 1670 ± 450 nM. The values for the kinact at EGFR^L858R/T790M [4], at EGFR^L858R [5] and at EGFR^WT [6] were 0.00217 s⁻¹, 0.002 s⁻¹ and 0.00283 s⁻¹, respectively. For the same compound, the values for the kinact/KI on EGFR^L858R/T790M [4], on EGFR^L858R [5] and on EGFR^WT [6] were 360000 ± 20000 M⁻¹ s⁻¹, 260000 ± 70000 M⁻¹ s⁻¹ and 10000 ± 10000 M⁻¹ s⁻¹, respectively. Besides, the results for the IC50 against EGFR^L858R/T790M [1], against EGFR^WT [2] and on EGFR^L858R [3] were 213 ± 49 nM, 338 ± 69 nM and 85 ± 34 nM, respectively.
